In US20090036470A1, “PALIPERIDONE DERIVATIVES” (priority 2007, published 2009):

Assay: Conversion of the compound (2) into paliperidone in acidic fluid (dissolution test of the Example 5 tablet in Simulated Gastric Fluid)
Type: physicochemical
Description: Conversion of the Compound (2) into Paliperidone in Acidic Fluid
A tablet of the following composition was prepared:
Compound (2), Prosolv HD-90 and low substituted hydroxypropylcellulose were mixed for 10 minutes at 22 rpm in a free fall mixer. The blend was forced sieved over a 250 micron sieve. The blend was then mixed for another 10 minutes in a free fall mixer at 22 rpm. The sodium stearyl fumarate was sieved over an 800 micron sieve and added to the blend. The blend was mixed for another 5 minutes at 22 rpm. Tablets were compressed on the Ek-0. Tablet mass was 100 mg, tablet hardness 30 N and the tablet diameter was 8 mm.
Determination of the dissolution assay at single point or dissolution profile was performed in Simulated Gastric Fluid (SGF) without pepsin (pH=1.2) with the paddle apparatus based on USP <711>, “Apparatus 2”. The dissolution samples were immediately neutralized to pH=7 upon sampling. The amount of paliperidone and compound (2) in the neutralized dissolution samples at the specified time point(s) was determined by HPLC at 280 nm.

In the case of Cc1nc2n(c(=O)c1CCN1CCC(c3noc4cc(F)ccc34)CC1)CCCC2OC1CCCCO1 (centres unmarked) [Compound (2)], the “time for quantitative conversion into paliperidone” value (Simulated Gastric Fluid without pepsin, pH=1.2, USP paddle apparatus 2, from Example 5 tablet (10.8 mg compound (2)), HPLC at 280 nm, six vessel test, FIGS. 1 and 2) is reported as “approx. 10 minutes” and the “extent of conversion into paliperidone” value (acidic fluid, as shown in FIG. 1) is reported as “quantitatively”.
